# Several values for one entry are separate records, joined by “and”; a condition that tells them apart may be missing. Identical values can stand only once.
# System: patients suffering from Alzheimer's disease
# Assay: Clinical trial of dimebon tablets, inventors' scale (E. E. Bukatina et al.; 0 = absence of a symptom, 4 = greatest manifestation)
# Type: in vivo, human
# Procedure: The test was carried out under the direct supervision by two of the inventors, namely E. E. Bukatina and V. Grigorieva, in 14 patients who agreed to take part in the tests, 13 of whom lived in a boarding house for senile persons and one patient lived with their family.
# Alzheimer's disease was diagnosed on the basis of criteria ICD-10 NINCDS ADRDA.
# Dimebon in the form of tablets (comprising 10 mg of dimebon, 30 mg of lactose, 5 mg of magnesium stearate was prescribed for oral administration in a dose of 0.02 g three to times a day. The patients living in the boarding house received dimebon for 58 days. A patient (observation 14) who was under outpatient observation continued taking the agent for a month after the completion of the tests.
# Before the treatment with dimebon, and at 4 and 8 weeks after treatment the patients were examined according to Hazegawa's scale and the inventors' scale (“Social and Clinical Psychiatry”, 1992, No.4, pp.29–37) which includes the following indexes: (1) orientation in locality, time, immediate surroundings and one's own personality; (2) orientation in space; (3) memory for the past; (4) memory for the present; (5) “life in the past”; (6) (a) articulation, (b) difficulty in finding words, and distortion of words; (c) naming of objects; (d) following instructions; (7) concentration (of attention); (8) an affective sphere; (a) high spirits, (b) low spirits; (9) delirium; (10) hearing hallucinations; (11) visual hallucinations; (12) senile or senile-like confusion (when motion anxiety is accompanied by the revival of the past experience); (13) irritability; (14) anxiety; (15) asthenia; (16) headaches; (17) dizziness; (18) tearfulness; (19) spontaneous activity; (20) elementary self-service; and (21 control of sphincters.
# According to the Hazegawa's scale, the 0 score indicates the poorest result; on the contrary, according to the inventors' scale, the 0 score indicates the absence of a symptom 4 score indicates the greatest manifestation thereof. […] Before the therapy was started, the patients had been independently examined by two doctors who used the inventors' scale. The examination during the treatment was carried out by the doctors using both the scales. The evaluation according to all the inventors' scale points during all the tests and their variations during the treatment with dimebon are given in the Appendix.
# According to the inventors' scale, the degree of the disturbance if the cognitive functions was determined by a sum of evaluations according to the first 5 scale points reflecting the condition of memory, orientation and relation with the reality. The disturbance of speech was dealt with separately and was determined by a sum of evaluations according to items 6b-6d.
# Both absolute evaluations of the signs under investigation (the evaluation prior to treatment is a mean evaluation of the two examinations) and variations in them were analysed in the course of therapy. In doing so, only those changes that were beyond the range of evaluations obtained in two pre-treatment examinations were taken into consideration.
# The test results reflected the condition of the patients at the time of the examination. Any changes in the metal state observed in the interval between the tests and disappearing by the moment of examination according to the scale were described in the section “Clinical Observations”.
# The statistical data processing was carried out by means of Student's t-test and Fisher's “Fi” criterion.
# [1] = after 8 weeks vs two examinations prior to treatment, + improvement, − deterioration
# [2] = after 8 weeks, mean of 14 patients
# [3] = change at 4 weeks vs K1, K2, per patient, listed as dimebon
structure (smiles),measurement,setting,value
"Cc1ccc2c(c1)c1c(n2CCc2ccc(C)nc2)CCN(C)C1 [No. 10, 2,8-dimethyl-5-[2-(6-methyl-3-pyridyl)ethyl]-2,3,4,5-tetrahydro-1H-pyrido[4,3-b]indole]",Item 20 (elementary self-service): mean value,"after 4 weeks, mean of 14 patients",0.07 +/− 0.07 scores
same,mean score of tearfulness,after 8 weeks,0±0.0
same,number of patients with signs of aggravation of depression,after 8 weeks,One
same,tearfulness,after 8 weeks,not a single female patient suffered from tearfulness
same,"Item 1 (orientation in locality, time, immediate surroundings and one's own personality): change during the course of the therapy",[1],+0.18 +/− 0.08 scores
same,Item 2 (orientation in space): change during the course of the therapy,[1],+0.11 +/− 0.07 scores
same,Item 3 (memory for the past): change during the course of the therapy,[1],+0.29 +/− 0.1 scores
same,Item 4 (memory for the present): change during the course of the therapy,[1],_0.29 +/− 0.08 scores
same,Item 5 (life in the past): change during the course of the therapy,[1],_0.29 +/− 0.1 scores
same,Item 6a (speech): change during the course of the therapy,[1],+0.14 +/− 0.08 scores
same,"Item 6b (difficulty in finding words, and distortion of words): change during the course of the therapy",[1],−0.04 +/− 0.03 scores
same,Item 6g (speech): change during the course of the therapy,[1],−0.07 +/− 0.18 scores
same,Item 7 (concentration of attention): change during the course of the therapy,[1],−0.04 +/− 0.06 scores
same,Item 8b (low spirits): change during the course of the therapy,[1],+0.43 +/− 0.2 scores
same,Item 9 (delirium): change during the course of the therapy,[1],+0.25 +/− 0.17 scores
same,Item 13 (irritability): change during the course of the therapy,[1],+0.36 +/− 0.16 scores
same,Item 14 (anxiety): change during the course of the therapy,[1],+0.07 +/− 0.09 scores
same,Item 15 (asthenia): change during the course of the therapy,[1],0 +/− 0 scores
same,Item 16 (headaches): change during the course of the therapy,[1],+0.21 +/− 0.1 scores
same,Item 17 (dizziness): change during the course of the therapy,[1],−0.18 +/− 0.22 scores
same,Item 18 (tearfulness): change during the course of the therapy,[1],+0.21 +/− 0.15 scores
same,Item 19 (spontaneous activity): change during the course of the therapy,[1],+0.04 +/− 0.11 scores
same,Item 20 (elementary self-service): change during the course of the therapy,[1],0 +/− 0.1 scores
same,"Item 1 (orientation in locality, time, immediate surroundings and one's own personality): mean value",[2],1.57 +/− 0.23 scores
same,Item 2 (orientation in space): mean value,[2],0.25 +/− 0.13 scores
same,Item 3 (memory for the past): mean value,[2],1.93 +/− 0.24 scores
same,Item 4 (memory for the present): mean value,[2],1.86 +/− 0.23 scores
same,Item 5 (life in the past): mean value,[2],1.57 +/− 0.27 scores
same,Item 6a (speech): mean value,[2],0.54 +/− 0.21 scores
same,"Item 6b (difficulty in finding words, and distortion of words): mean value",[2],0.39 +/− 0.2 scores
same,Item 6g (speech): mean value,[2],0.54 +/− 0.19 scores
same,Item 7 (concentration of attention): mean value,[2],1.75 +/− 0.3 scores
same,Item 8b (low spirits): mean value,[2],0.46 +/− 0.14 scores
same,Item 9 (delirium): mean value,[2],0.5 +/− 0.19 scores
same,Item 13 (irritability): mean value,[2],0.14 +/− 0.09 scores
same,Item 14 (anxiety): mean value,[2],0.18 +/− 0.1 scores
same,Item 15 (asthenia): mean value,[2],0.04 +/− 0.03 scores
same,Item 16 (headaches): mean value,[2],0.64 +/− 0.24 scores
same,Item 17 (dizziness): mean value,[2],0.68 +/− 0.25 scores
same,Item 18 (tearfulness): mean value,[2],0.14 +/− 0.14 scores
same,Item 19 (spontaneous activity): mean value,[2],1.18 +/− 0.27 scores
same,Item 20 (elementary self-service): mean value,[2],0.14 +/− 0.4 scores
same,impairments according to the first 5 scale points (cognitive functions),both after 4-week and 8-week treatment,lack of impairments
same,"20. Elementary self-service, Changes (4 weeks)","change at 4 weeks vs K1, K2, per patient",+1
same,"2. Orientation in space, Changes (4 weeks)",[3],−0.5
same,"5. Life in the past, Changes (4 weeks)",[3],+0.5 (2×) and +1
same,"6c. Naming of objects, Changes (4 weeks)",[3],+0.5 and −1
same,"7. Concentration, Changes (4 weeks)",[3],+0.5 and −0.5
same,"8b. Lower spirits, Changes (4 weeks)",[3],+0.5 (3×) and +2 and +1
same,"9. Delirium, Changes (4 weeks)",[3],+0.5 and +1 and −0.5
same,"13. Irritability, Changes (4 weeks)",[3],+1.5 and +1 (2×) and +0.5
same,"14. Anxiety, Changes (4 weeks)",[3],+0.5 and +1 and −1 (2×)
same,"15. Asthenia, Changes (4 weeks)",[3],−0.5 and −1
same,"16. Headache, Changes (4 weeks)",[3],+1 (2×) and +2 (2×) and −1.5
same,"17. Dizziness, Changes (4 weeks)",[3],+1 and −1 and −2
same,"18. Tearfulness, Changes (4 weeks)",[3],+2 and 0
same,"6d. Performing instructions, Changes (4 weeks)",[3],−1 and +1 (2×)
same,"1. Orientation in locality and time, Changes (4 weeks)","change at 4 weeks vs K1, K2 prior to treatment, + improvement, − deterioration, — no change, per patient, listed as dimebon",+1 and +0.5
same,"1. Orientation in locality and time, Changes (8 weeks)","change at 8 weeks vs K1, K2, + improvement, − deterioration, — no change, per patient, listed as dimebon",+1 and +0.5 (3×)
